Where “and” joins values, the source holds several entries; their conditions need not be identical. Equal entries are not always repeated.
Legend:
Format in all cases: biochemical
[1] = target: T1, norepinephrine (NE) reuptake, rat hypothalamus (Rattus norvegicus, UniProt Q63380); experiment: Inhibition of norepinephrine (NE) reuptake, [3H]NE incorporation into synaptosomes; conditions: for NE reuptake Hill coefficient (nH): Hill equation curve fitting; for IC50: [3H]NE 0.2 μCi/mL, 20 min/37° C.
T1 construct: using rat hypothalamus as a tissue source; from tissue; host or cells: rat hypothalamus synaptosomes
Experimental: (§1) Bupropion metabolites can be screened for their ability to inhibit the reuptake of the neuronal monoamines norepiniephrine (NE), dopaminc (DA), and serotonin (5-HT). […] Other assays known to those skilled in the art may also be used.
(§2) Inhibition of norepincphrinie (NE) reuptake was determined using rat hypothalamus as a tissue source and protryptiline as a reference compound. […] Inhibition of serotonin (5-HT) reuptake was determined using rat brain as a tissue source and imipramine as a reference compound.
(§3) wherein the end products observed were formed by the incorporation of [^3H]NE, [^3H]DA, and [^3H]5-HT into synaptosomes. Radioactivity was determined with a scintillation counter (Topcount, Packard) using a liquid scintillation cocktail (Microscint 0, Packard).
(§4) Raceinic bupropion and the bupropion metabolites were first tested in each assay at 10 μM in duplicate or triplicate. […] In each experiment, the respective reference compound was tested at eight concentrations in duplicate to obtain an inhibition curve in order to validate this experiment.
(§5) IC50 values and Hill coefficients (nH) were determined for the reference compounds and the test compounds (i.e., bupropion and metabolites of bupropion) by non-linear regression analysis of their inhibition curves. These parameters were obtained by Hill equation curve fitting.

[2] = target: T2, dopamine (DA) reuptake, rat corpora striata (Rattus norvegicus, UniProt P23977); experiment: Inhibition of dopamine (DA) reuptake, [3H]DA incorporation into synaptosomes; conditions: for DA reuptake Hill coefficient (nH): Hill equation curve fitting; for IC50: [3H]DA 0.2 μCi/mL, 15 min/37° C.
T2 construct: using rat corpora striata as a tissue source; from tissue; host or cells: rat corpora striata synaptosomes
Experimental: as §1, §2, §3, §4, §5

[3] = target: T3, serotonin (5-HT) reuptake, rat brain (Rattus norvegicus, UniProt P31652); experiment: Inhibition of serotonin (5-HT) reuptake, [3H]5-HT incorporation into synaptosomes; conditions: [3H]5-HT 0.2 μCi/mL, 15 min/37° C., first tested at 10 μM
T3 construct: using rat brain as a tissue source; from tissue; host or cells: rat brain synaptosomes
Experimental: as §1, §2, §3, §4, §5

T2 sequence (P23977 whole entry): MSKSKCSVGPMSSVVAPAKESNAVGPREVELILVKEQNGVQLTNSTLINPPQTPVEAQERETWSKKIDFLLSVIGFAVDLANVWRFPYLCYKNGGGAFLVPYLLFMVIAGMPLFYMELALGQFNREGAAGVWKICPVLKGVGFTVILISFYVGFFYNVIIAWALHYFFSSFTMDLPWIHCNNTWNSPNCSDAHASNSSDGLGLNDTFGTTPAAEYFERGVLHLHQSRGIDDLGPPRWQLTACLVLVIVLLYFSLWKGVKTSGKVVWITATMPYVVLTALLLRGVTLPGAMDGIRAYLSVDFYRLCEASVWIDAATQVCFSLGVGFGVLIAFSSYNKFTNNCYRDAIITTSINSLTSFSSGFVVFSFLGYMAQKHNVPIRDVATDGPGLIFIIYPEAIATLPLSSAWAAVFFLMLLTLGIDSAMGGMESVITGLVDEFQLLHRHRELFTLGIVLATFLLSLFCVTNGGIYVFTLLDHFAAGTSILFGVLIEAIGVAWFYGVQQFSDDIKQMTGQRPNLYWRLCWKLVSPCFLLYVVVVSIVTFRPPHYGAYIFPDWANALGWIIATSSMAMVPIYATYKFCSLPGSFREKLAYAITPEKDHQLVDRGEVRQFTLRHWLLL
T1 sequence (Q63380 1-617): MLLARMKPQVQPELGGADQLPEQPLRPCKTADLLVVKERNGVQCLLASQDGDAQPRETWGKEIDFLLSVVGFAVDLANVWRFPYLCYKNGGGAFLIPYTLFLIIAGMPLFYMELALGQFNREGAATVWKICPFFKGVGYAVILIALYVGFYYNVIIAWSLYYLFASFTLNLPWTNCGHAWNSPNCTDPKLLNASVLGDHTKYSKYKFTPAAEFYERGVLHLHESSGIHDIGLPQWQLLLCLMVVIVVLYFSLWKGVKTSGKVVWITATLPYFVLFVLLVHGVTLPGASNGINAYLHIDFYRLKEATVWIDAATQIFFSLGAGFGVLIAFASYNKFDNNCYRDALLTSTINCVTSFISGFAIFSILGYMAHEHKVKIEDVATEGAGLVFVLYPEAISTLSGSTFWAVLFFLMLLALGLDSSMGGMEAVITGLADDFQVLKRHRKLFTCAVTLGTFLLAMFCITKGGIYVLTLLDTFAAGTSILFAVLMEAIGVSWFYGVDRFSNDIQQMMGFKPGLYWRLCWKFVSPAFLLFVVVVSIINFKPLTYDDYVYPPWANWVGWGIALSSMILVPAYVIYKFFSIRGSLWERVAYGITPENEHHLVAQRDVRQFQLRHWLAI
T3 sequence (P31652 whole entry): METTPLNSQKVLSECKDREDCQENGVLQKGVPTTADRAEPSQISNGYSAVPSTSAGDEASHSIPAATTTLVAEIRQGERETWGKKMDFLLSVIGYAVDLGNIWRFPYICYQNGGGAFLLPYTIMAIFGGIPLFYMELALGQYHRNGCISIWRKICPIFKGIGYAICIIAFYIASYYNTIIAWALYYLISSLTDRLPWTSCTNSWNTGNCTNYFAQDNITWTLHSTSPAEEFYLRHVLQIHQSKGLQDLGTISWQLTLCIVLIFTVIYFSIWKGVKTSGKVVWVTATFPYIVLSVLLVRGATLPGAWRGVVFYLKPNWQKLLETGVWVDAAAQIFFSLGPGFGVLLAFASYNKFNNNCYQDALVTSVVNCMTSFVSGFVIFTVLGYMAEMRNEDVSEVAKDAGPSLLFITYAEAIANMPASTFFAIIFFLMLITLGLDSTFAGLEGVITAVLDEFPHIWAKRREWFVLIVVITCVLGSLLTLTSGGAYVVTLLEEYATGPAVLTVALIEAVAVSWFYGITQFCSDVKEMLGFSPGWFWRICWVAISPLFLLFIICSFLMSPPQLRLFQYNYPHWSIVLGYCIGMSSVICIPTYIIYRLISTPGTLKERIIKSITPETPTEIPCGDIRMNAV

## CC(NC(C)(C)C)C(=O)c1cccc(Cl)c1 (racemic) [BP(±), (±)1-(3-chlorophenyl)-2-[(1,1-dimethylethyl)amino]-1-propanone, reference compound]
[1]
  NE reuptake Hill coefficient (nH): (>3)
  IC50: ~0.746 µM and 0.746 µM
[2]
  DA reuptake Hill coefficient (nH): (0.9)
  IC50: ~0.294 µM and 0.294 µM

## C[C@@H]1NC(C)(C)CO[C@@]1(O)c1cccc(Cl)c1 [HBP(S, S)]
[1]
  NE reuptake Hill coefficient (nH): (0.8)
  IC50: 0.229 µM
[2]
  Inhibition of dopamine reuptake (in words): does not significantly inhibit dopamine reuptake
  DA reuptake Hill coefficient (nH): (1.0)
  IC50: 1.4 µM
[2]; listed as (S,S)-hydroxybupropion
  IC50: ~1.4 µM
[3]
  Inhibition of 5-HT reuptake (in words): does not measurably inhibit serotonin uptake

## CC1NC(C)(C)COC1(O)c1cccc(Cl)c1 (racemic) [HBP(RS, RS), (RS,RS)-2-(3-chlorophenyl)-2-hydroxy-3,5,5-trimethyl-morpholinol]
[1]
  NE reuptake Hill coefficient (nH): (1.1)
  IC50: 0.756 µM

## CNCCCC1c2ccccc2C=Cc2ccccc21 [protriptyline]
[1]
  NE reuptake Hill coefficient (nH): 2.6 and 1.4

— US6337328B1, “Bupropion metabolites and methods of use” (priority 1999, dated 2002)
